From ChEMBL document CHEMBL3046211, “Synthesis, antimicrobial, analgesic activity, and molecular docking studies of novel 1-(5,7-dichloro-1,3-benzoxazol-2-yl)-3-phenyl-1H-pyrazole-4-carbaldehyde derivatives” (2013) come the findings set out here.

The test system of assay [1] is Salmonella typhi. Briefly: Antibacterial activity against Salmonella typhi pateint isolate at 40 ug/ml after 24 hrs by agar well diffusion method. To be noted: Salmonella enterica, read-out: IZ. In kind it is functional, Salmonella enterica subsp. enterica serovar Typhi.
The test system of assay [2] is Bacillus subtilis. Briefly: Antibacterial activity against Bacillus subtilis pateint isolate. In kind it is functional.
Assay [3] deals with Bacillus subtilis. In words: Antibacterial activity against Bacillus subtilis pateint isolate at 40 ug/ml after 24 hrs by agar well diffusion method. The class given is functional. The conditions noted are these: read-out: IZ. Background: A growth-free zone around the sample is the usual read-out of agar diffusion tests.
The subject of assay [4] is Candida albicans. In words: Antifungal activity against Candida albicans at 40 ug/ml after 72 hrs by agar well diffusion method. In kind it is functional. To be noted: read-out: IZ.
The test system of assay [5] is Salmonella typhi. Briefly: Antibacterial activity against Salmonella typhi pateint isolate. The class given is functional, Salmonella enterica subsp. enterica serovar Typhi. The conditions noted are these: Salmonella enterica.
The test system of another assay is Mus musculus. Briefly: Analgesic activity in Swiss albino mouse assessed as protection against acetic acid-induced writhing at 100 mg/kg, po administered 1 hr prior to acetic acid-challenge measured after 5 mins for 20 mins relative to control. The class given is functional. In general terms: In writhing tests, fewer writhes than in controls are read as antinociception.

For assay [6], the system named is Candida albicans. Briefly: Antifungal activity against Candida albicans. The class given is functional.
In assay [7] the test system is Staphylococcus aureus. Briefly: Antibacterial activity against Staphylococcus aureus pateint isolate at 40 ug/ml after 24 hrs by agar well diffusion method. In kind it is functional. To be noted: read-out: IZ.
The subject of assay [8] is Staphylococcus aureus. Briefly: Antibacterial activity against Staphylococcus aureus pateint isolate. In kind it is functional.
The subject of assay [9] is Escherichia coli. In words: Antibacterial activity against Escherichia coli pateint isolate. The class given is functional.
Assay [10] relates to Aspergillus niger. Briefly: Antifungal activity against Aspergillus niger. The class given is functional.
For assay [11], the system named is Aspergillus niger. Briefly: Antifungal activity against Aspergillus niger at 40 ug/ml after 72 hrs by agar well diffusion method. The conditions noted are these: read-out: IZ. The class given is functional.
Assay [12] relates to Escherichia coli. Briefly: Antibacterial activity against Escherichia coli pateint isolate at 40 ug/ml after 24 hrs by agar well diffusion method. The class given is functional.
For assay [13], the system named is Salmonella typhi. Briefly: Antibacterial activity against Salmonella typhi pateint isolate at 40 ug/100 ul after 24 hrs by agar well diffusion method. In kind it is functional, Salmonella enterica subsp. enterica serovar Typhi.
Assay [14] has as its system Aspergillus niger. Briefly: Antifungal activity against Aspergillus niger at 40 ug/100 ul after 72 hrs by agar well diffusion method. In kind it is functional.
The subject of assay [15] is Candida albicans. In words: Antifungal activity against Candida albicans at 40 ug/100 ul after 72 hrs by agar well diffusion method. In kind it is functional.

Each structure is given as a SMILES string. Converted amounts (≈) assume the structure as drawn.

Regarding `COc1ccc(-c2nn(-c3nc4cc(Cl)cc(Cl)c4o3)cc2C=O)cc1`, the zone of inhibition at 40 µg/mL worked out at 19 mm with Salmonella typhi [1]; 20 mm with Bacillus subtilis [3]; 20 mm in the assay with Candida albicans [4]; 19 mm with Staphylococcus aureus [7]; 20 mm in the assay with Aspergillus niger [11]. Also, the MIC – broadly, the least concentration at which growth counts as inhibited – in the assay on Bacillus subtilis [2] is 40 mg/L (≈ 103 µM); against Salmonella typhi [5], 40 mg/L (≈ 103 µM); with Candida albicans [6], 40 mg/L (≈ 103 µM); in the assay with Staphylococcus aureus [8], 30 mg/L (≈ 77.3 µM); against Escherichia coli [9], 40 mg/L (≈ 103 µM); against Aspergillus niger [10], 30 mg/L (≈ 77.3 µM). In addition, in the assay with Mus musculus, the Activity is reported as 50.27%. Moreover, the “inhibition zone (IZ)” value in the assay with Escherichia coli [12] stood at 22 mm.

Turning to `O=Cc1cn(-c2nc3cc(Cl)cc(Cl)c3o2)nc1-c1ccc(Cl)c(Cl)c1`, the zone of inhibition at 40 µg/mL with Salmonella typhi [1] amounted to 20 mm; with Bacillus subtilis [3] it was 22 mm; with Candida albicans [4] it was 22 mm; with Staphylococcus aureus [7], 22 mm; in the assay on Aspergillus niger [11], 22 mm. Also, the MIC is 30 mg/L (≈ 70.2 µM) with Bacillus subtilis [2]; 30 mg/L (≈ 70.2 µM) against Salmonella typhi [5]; 40 mg/L (≈ 93.7 µM) in the assay on Candida albicans [6]; 30 mg/L (≈ 70.2 µM) in the assay on Staphylococcus aureus [8]; 30 mg/L (≈ 70.2 µM) against Escherichia coli [9]; 40 mg/L (≈ 93.7 µM) with Aspergillus niger [10]. For the same molecule, the Activity with Mus musculus stood at 50%. In addition, the “inhibition zone (IZ)” value in the assay on Escherichia coli [12] stood at 22 mm.

On to `O=C(O)c1cn(C2CC2)c2cc(N3CCNCC3)c(F)cc2c1=O` [CIPROFLOXACIN], for which the “inhibition zone (IZ)” value with Salmonella typhi [13] is 21 mm.

For the molecule `O=Cc1cn(-c2nc3cc(Cl)cc(Cl)c3o2)nc1-c1ccc(O)cc1`, the zone of inhibition at 40 µg/mL in the assay with Salmonella typhi [1] turned out to be 21 mm; in the assay on Bacillus subtilis [3], 23 mm; in the assay on Candida albicans [4], 22 mm; in the assay with Staphylococcus aureus [7], 23 mm; in the assay with Aspergillus niger [11], 22 mm. Further, the MIC against Bacillus subtilis [2] was 20 mg/L (≈ 53.4 µM); with Salmonella typhi [5], 30 mg/L (≈ 80.2 µM); against Candida albicans [6] it was 20 mg/L (≈ 53.4 µM); with Staphylococcus aureus [8] it was 20 mg/L (≈ 53.4 µM); against Escherichia coli [9] it was 30 mg/L (≈ 80.2 µM); in the assay with Aspergillus niger [10], 30 mg/L (≈ 80.2 µM). For the same molecule, in the assay with Mus musculus, the Activity amounted to 55.78%. Further, the “inhibition zone (IZ)” value in the assay with Escherichia coli [12] is listed as 22 mm.

On to `OC(Cn1cncn1)(Cn1cncn1)c1ccc(F)cc1F` [FLUCONAZOLE], for which the “inhibition zone (IZ)” value with Aspergillus niger [14] is 22 mm; with Candida albicans [15], 23 mm.

As to `O=Cc1cn(-c2nc3cc(Cl)cc(Cl)c3o2)nc1-c1ccc(Br)cc1`, the zone of inhibition at 40 µg/mL is 21 mm in the assay on Salmonella typhi [1]; 22 mm in the assay with Bacillus subtilis [3]; 23 mm in the assay on Candida albicans [4]; 23 mm in the assay on Staphylococcus aureus [7]; 22 mm in the assay with Aspergillus niger [11]. The MIC against Bacillus subtilis [2] came out at 20 mg/L (≈ 45.8 µM); in the assay with Salmonella typhi [5], 30 mg/L (≈ 68.6 µM); in the assay on Candida albicans [6], 30 mg/L (≈ 68.6 µM); against Staphylococcus aureus [8] it was 20 mg/L (≈ 45.8 µM); in the assay with Escherichia coli [9], 20 mg/L (≈ 45.8 µM); against Aspergillus niger [10], 20 mg/L (≈ 45.8 µM). For the same molecule, the Activity with Mus musculus was 54.63%. Also, in the assay on Escherichia coli [12], the “inhibition zone (IZ)” value is reported as 22 mm.

For `CC(=O)Oc1ccccc1C(=O)O` [ASPIRIN], the Activity with Mus musculus worked out at 58.74%.

On to `Cc1ccc(-c2nn(-c3nc4cc(Cl)cc(Cl)c4o3)cc2C=O)cc1`, for which the zone of inhibition at 40 µg/mL in the assay on Salmonella typhi [1] is 20 mm; with Bacillus subtilis [3], 20 mm; with Candida albicans [4], 19 mm; in the assay with Staphylococcus aureus [7], 21 mm; in the assay with Aspergillus niger [11], 19 mm. Moreover, the MIC was determined as 30 mg/L (≈ 80.6 µM) in the assay on Bacillus subtilis [2]; 30 mg/L (≈ 80.6 µM) in the assay with Salmonella typhi [5]; 30 mg/L (≈ 80.6 µM) in the assay on Candida albicans [6]; 30 mg/L (≈ 80.6 µM) against Staphylococcus aureus [8]; 40 mg/L (≈ 107 µM) in the assay on Escherichia coli [9]; 30 mg/L (≈ 80.6 µM) in the assay with Aspergillus niger [10]. Besides, the Activity in the assay on Mus musculus is 51.4%. Moreover, in the assay on Escherichia coli [12], the “inhibition zone (IZ)” value stood at 21 mm.
